Results taken from patent US10000469B2, “Heat shock protein 70 (hsp-70) receptor ligands” (Duke University, priority 2014, dated 2018).

Experiments:
Hsp70 [1] = target: Hsp70 (Homo sapiens, UniProt P0DMV8); test: Single turnover ATPase assay; assay type: biochemical; settings: presence or absence of co-chaperone Hlj1
Description: ATPase Assay: Single turnover assays were performed as previously described [Fewell et al. (2004). Small molecule modulators of endogenous and co-chaperone-stimulated Hsp70 ATPase activity. The Journal of biological chemistry 279, 51131-51140]. Briefly, Hsp70 was incubated with ^32P-ATP and cold ATP in single turnover buffer (1M KCl, 250 mM HEPES, 110 mM MgOAc) for 30 minutes on ice. ^32P-ATP-Hsp70 complex was purified from a Nick Column-Sephadex G-50 (Amersham, Piscataway, N.J.). Glycerol was added and the complexes were stored at −80° C. To determine ATP hydrolysis, a sample was thawed and added to single turnover buffer containing Hlj1 and compound added after 60 seconds. At the specified time points an aliquot of the reaction is removed, added to stop solution (2M LiCl, 4M formic acid, 36 mM ATP) and spotted on a TLC plate. The percentage of ATP hydrolyzed to ADP and P, was then calculated.

Hsp70 [2] = target: T1, Hsp70 (Sus scrofa, UniProt P34930); test: Endogenous Hsp70 elution from ATP resin, pig bladder lysate; assay type: binding; settings: few non-specific eluted proteins
T1 construct: from tissue; host or cells: pig bladder
Description: Endogenous Hsp70 elution: Pig bladder tissue was used for eluting endogenous Hsp70 from the γ-phosphate ATP sepharose resin. Tissue was homogenized in liquid nitrogen and stored at −80° C. until further use. Tissue mass was measured (g) and then 2.5× volume (mL) of tissue lysis buffer (50 mM HEPES, 60 mM MgCl2, 60 mM KCl, 1 mM DTT) was added and homogenized on a laboratory blender. A total of 25 grams of homogenized tissue was typically used for each experiment. Subsequent to lysis, the tissue was centrifuged at 35,000 RPM in a Beckman Type 45 Ti rotor (Brea, Calif.) for 45 minutes at 4° C., and then filtered over silica wool. The filtered supernatant was then added to the γ-phosphate ATP sepharose resin and washed as previously described in the FLECS screen. Compounds were used to elute Hsp70 and the elutions were then separated by SDS-PAGE and analyzed by Western blot or the gels were visualized by silver stain.

Her2 and Akt = test: Degradation assay (Western blot of client proteins); assay type: cell-based
Description: Western Blotting: SDS-PAGE was carried out using Criterion™ Cell system using pre-casted 4-20% or 4-15% Criterion™ Tris-HCl gels (BioRad, Hercules, Calif.). For Western blotting gels were run at 200V for 1 hour using the PowerPac basic power supply (BioRad, Hercules, Calif.). Next, gels were transferred to nitrocellulose for blotting at 100V for 1 hour (Fisher Scientific, Waltham, Mass.). Nitrocellulose membranes were blocked with 5% dry non-fat milk in phosphate-buffered saline (PBS) with 0.01% Tween-20 for 1 hour at room temperature. Membranes were incubated with primary antibodies (1:1000 dilution) overnight at 4° C. The next day membranes were washed 3× in PBS-Tween, incubated for 1 hour at room temperature with secondary antibodies, and further washed 3× in PBS-Tween. ECL Plus Western blotting reagent (Pierce Biotechnology, Rockford, Ill.) was used to detect antibodies. GFP, Her2, Akt, Hsp70, Hsc70, Grp78, Grp75, and Hsp90 primary antibodies and all associated secondary antibodies were purchased from Cell Signaling Technology (Danvers, Mass.).
Degradation Assay: The specified cells were seeded overnight and then treated with the indicated concentration of compound for 24 hours. The cells were then harvested and subjected to analysis by Western blot.

[3] = tested on: PC12 cell line expressing httQ74-GFP; test: Aggregation assay, cell culture model of Huntington's disease; assay type: cell-based, rat; settings: compared to untreated controls
Description: Aggregation Assay: The PC12 rat neuronal cell line, which expresses Huntingtin exon 1 containing 74 glutamine repeats is fused to GFP and under the control of a doxycycline promoter was used [Wyttenbach et al. (2001). Polyglutamine expansions cause decreased CRE-mediated transcription and early gene expression changes prior to cell death in an inducible cell model of Huntington's disease. Human molecular genetics 10, 1829-1845]. Cells were treated with HS-72 for 18 hours prior to a doxycycline addition for 48 hours. The soluble and pellet fraction were then separated by centrifugation at 14,000 rpm for 15 minutes and both fractions were assayed for httQ-GFP by solubilizing with SDS followed by western blotting with antibodies against GFP.

[4] = HS-72 in combination with HS-10

Hsp70 (Homo sapiens, UniProt P0DMV8), sequence (P0DMV8 whole entry): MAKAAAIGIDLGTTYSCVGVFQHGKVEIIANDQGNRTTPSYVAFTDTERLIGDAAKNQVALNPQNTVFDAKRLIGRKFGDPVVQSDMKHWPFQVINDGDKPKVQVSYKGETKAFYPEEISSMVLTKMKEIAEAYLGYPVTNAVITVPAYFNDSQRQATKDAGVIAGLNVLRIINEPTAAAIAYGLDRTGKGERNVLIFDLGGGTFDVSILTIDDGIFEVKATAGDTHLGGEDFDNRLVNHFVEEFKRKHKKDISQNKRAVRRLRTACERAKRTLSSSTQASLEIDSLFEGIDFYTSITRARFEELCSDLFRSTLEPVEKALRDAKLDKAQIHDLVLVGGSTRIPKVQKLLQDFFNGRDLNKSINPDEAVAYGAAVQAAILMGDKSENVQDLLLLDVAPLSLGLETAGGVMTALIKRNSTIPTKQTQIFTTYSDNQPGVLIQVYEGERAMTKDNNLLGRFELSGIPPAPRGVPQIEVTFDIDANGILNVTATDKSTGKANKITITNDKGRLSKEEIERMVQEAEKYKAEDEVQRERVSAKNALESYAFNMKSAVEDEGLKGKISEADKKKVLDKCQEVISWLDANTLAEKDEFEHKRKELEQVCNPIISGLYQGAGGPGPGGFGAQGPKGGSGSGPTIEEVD
T1 sequence (P34930 whole entry): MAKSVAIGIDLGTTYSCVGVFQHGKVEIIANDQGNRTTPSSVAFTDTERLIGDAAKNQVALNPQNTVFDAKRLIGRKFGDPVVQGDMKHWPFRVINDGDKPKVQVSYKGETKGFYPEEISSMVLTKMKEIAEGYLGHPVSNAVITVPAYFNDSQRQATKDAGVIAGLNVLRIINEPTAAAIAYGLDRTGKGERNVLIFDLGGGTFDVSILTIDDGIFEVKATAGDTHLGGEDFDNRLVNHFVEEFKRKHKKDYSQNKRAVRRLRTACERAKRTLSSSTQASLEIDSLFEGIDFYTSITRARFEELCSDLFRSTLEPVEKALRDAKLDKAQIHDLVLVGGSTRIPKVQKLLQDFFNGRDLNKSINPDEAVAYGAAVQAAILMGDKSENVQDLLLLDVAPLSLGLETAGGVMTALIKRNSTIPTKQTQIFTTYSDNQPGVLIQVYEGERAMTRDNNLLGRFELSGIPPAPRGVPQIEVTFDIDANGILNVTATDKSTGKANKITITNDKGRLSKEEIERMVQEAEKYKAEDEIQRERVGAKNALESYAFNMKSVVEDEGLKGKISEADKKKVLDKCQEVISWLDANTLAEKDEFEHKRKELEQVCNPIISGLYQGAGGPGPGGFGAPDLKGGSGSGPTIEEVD

## CCCn1c(NC(=O)[C@H]2CCCN(c3cnccn3)C2)nc2ccccc21 [HS-72, (S)—N-(1-propyl-1H-benzo[d]imidazol-2-yl)-1-(pyrazin-2-yl)piperidine-3-carboxamide]
Hsp70 [1]
  effect on Hsp70 ATPase activity: does not reduce
Hsp70 [2]
  elution of Hsp70 from ATP resin: elutes Hsp70
Her2 and Akt; [4]
  Akt degradation: significant Akt degradation
  levels of Her2: completely abolished
Her2 and Akt; compound alone, BT474 breast cancer cells
  Akt and Her2 expression: dose dependent reduction
[3]
  increase of HttQ-GFP in the insoluble associated pellet fraction: 50%
